The text below walks through data of PMC5095144, “Purification and characterization of an extracellular β‐glucosidase from Sporothrix schenckii” (FEBS Open Bio, 2016).

The test system of experiment [1] is T1, extracellular β-glucosidase.
T1 construct: gene beta-D-glucoside glucohydrolase; native, secreted, purified from culture filtrate of cellulose-grown mycelial form
Put plainly: fluorometric 4-MU release, Michaelis-Menten nonlinear regression. The format is biochemical, Sporothrix schenckii. The note with it: 100 mM sodium citrate pH 5, 45 °C; substrate 0–15 μM.

The test system is the same in experiment [2]. The experiment can be described thus: p-nitrophenol release at […] nm, Michaelis-Menten nonlinear regression. Format: biochemical, Sporothrix schenckii. The note with it: 100 mM sodium citrate pH 5, 45 °C; substrate 0–17.5 mM (below the fitted Km).
For experiment [3], the target named is extracellular β-glucosidase from Sporothrix schenckii (Sporothrix schenckii). Put plainly: SEC; Sephacryl S200-HR column (1 x 119 cm), 50 mM phosphate buffer pH 7, 4 °C, calibrated with standard proteins; native mass compared with the subunit mass from 7% SDS/PAGE. In general terms: Size exclusion chromatography separates by hydrodynamic size, large species first.

The target is the same in experiment [4]. Put plainly: zymogram after SDS/PAGE (semidenaturing) and native PAGE; 7% gels run at 4 °C, sample incubated 30 min at 37 °C in sample buffer; activity shown with 4-MUG; CFCF after 3 days on cellulose.

Turning to `Cc1cc(=O)oc2cc(O[C@@H]3O[C@H](CO)[C@@H](O)[C@H](O)[C@H]3O)ccc12` [4-methylumbelliferyl β-D-glucopyranoside], the Km – broadly, the substrate concentration at which the rate is half of its maximum – in experiment [1] is 0.012 ± 0.001 mM.

On to `O=[N+]([O-])c1ccc(O[C@@H]2O[C@H](CO)[C@@H](O)[C@H](O)[C@H]2O)cc1` [p-nitrophenyl β-D-glucopyranoside], for which, in experiment [2], the Km worked out at 44.1 ± 6.11 mM.

On to “extracellular β-glucosidase from Sporothrix schenckii (enzyme)”, for which the stoichiometry N in experiment [3] and in experiment [4] was 2 in each case.
